Columns and labels:
[1] = 95 hours, cited from earlier work
[2] = cited from earlier work
[3] = system: foetal haemoglobin, in particular the γ chain; conditions: acids and their salts, cited from earlier work; for synthesis of foetal haemoglobin: in particular γ chain
[4] = system: HL 60 cells; assay: Antiproliferative test: inhibition of growth of HL 60 cells; type: cell-based; conditions: concentrations 0.5 to 1 mM
Protocol: The tests were carried out on stabilized cell lines (HL 60 and others) in the absence of growth factors. The concentrations of butyric derivatives vary from 0.5 to 1 mM.
The following parameters were evaluated by "FASC Scan" scanning and flow cytometry:
incorporation of tritiated thymidine (exploration of cell metabolism);
incorporation of propylium iodide (determination of the phase of the cell cycle);

[5] = system: γ chain of the haemoglobin; assay: Level of γ chain of the haemoglobin in erythroleukaemic cell lines; type: cell-based; conditions: 0.70 mM (α-MAM-A), 0.35 mM (Xyli-C); for level of γ chain of the haemoglobin in the presence of A.P.A.A.P.: 10% without ester; for increase in level of γ chain of the haemoglobin: erythroleukaemic cell lines, normal human serum
Protocol: The following parameters were evaluated: level of γ chain of the haemoglobin (immunological quantitative determination by double antigen antibody reaction and by immunocytochemical quantitative determination in the presence of alkaline phosphatase-anti-alkaline phosphatase A.P.A.A.P.);

[6] = cited from earlier work; remark: listed apart in the source

CCCC(=O)O[C@@H]1[C@H]2OC(C)(C)O[C@H]2O[C@@H]1[C@H](O)CO [3-O-n-butanoyl-1,2-O-isopropylidene-α-D-glucofuranose]
5-O-n-butanoyl isomer in the non-deesterified fraction ([1]; pH=8.1, 25° C.): 4% | 6-O-n-butanoyl isomer in the non-deesterified fraction ([1]; pH=8.1, 25° C.): 90% | initial ester in the non-deesterified fraction ([1]; pH=8.1, 25° C.): 6% | deesterification ([1]; same conditions (pH=8.1, 25° C.), Goueth et al.): 20% | internal transesterification in solution [2]: undergoes an internal transesterification

O=C(O)CCCc1ccccc1 [4-phenylbutyric acid]
γ gene of human foetal haemoglobin [3]: induce the γ gene of human foetal haemoglobin | synthesis of foetal haemoglobin [3]: stimulate the synthesis of foetal haemoglobin

CCCC(=O)OCC1OC(C)(C)OC1C(O)CO (stereo not drawn) [MAXyli-C, 1-O-n-butanoyl-2,3-O-isopropylidenexylitol]
% of inhibition of growth HL 60 ([4]; 3 d.): 80% | % of inhibition of growth HL 60 ([4]; 4 d.): 90%

CCCC(=O)OC[C@H](O)[C@@H](O)[C@H](O)CO [Xyli-C, 1-O-n-butanoylxylitol]
level of γ chain of the haemoglobin in the presence of A.P.A.A.P. [5]: 17% | increase in level of γ chain of the haemoglobin [5]: increase the level of γ chain of the haemoglobin | % of inhibition of growth HL 60 ([4]; 5 d.): 70%

CCCC(=O)O [n-butyric acid]
in vivo plasma lifetime [6]: very short in vivo plasma lifetime | γ gene of human foetal haemoglobin [3]: induce the γ gene of human foetal haemoglobin | synthesis of foetal haemoglobin [3]: stimulate the synthesis of foetal haemoglobin

O=C(O)Cc1ccccc1 [phenylacetic acid]
γ gene of human foetal haemoglobin [3]: induce the γ gene of human foetal haemoglobin | synthesis of foetal haemoglobin [3]: stimulate the synthesis of foetal haemoglobin

CCCC(=O)O[C@H]1O[C@H]([C@H](O)CO)[C@@H]2OC(C)(C)O[C@H]12 [α-MAM-A, O-n-butanoyl-2,3-O-isopropylidene-α-D-mannoside]
level of γ chain of the haemoglobin in the presence of A.P.A.A.P. [5]: 22% | increase in level of γ chain of the haemoglobin [5]: increase the level of γ chain of the haemoglobin | % of inhibition of growth HL 60 ([4]; 2 d.): 40% | % of inhibition of growth HL 60 ([4]; 5 d.): 80%

From patent US5830872A, “Esters of D-mannose or of xylitol and their use as medicaments” (L'Associazione di volontariato "Pro La Fondazione Futuro …, priority 1994, dated 1998)
